Measured values taken from PubChem BioAssay AID316 (DTP/NCI, 2004).
Where “and” joins values, the source holds several entries; their conditions need not be identical. Identical values can stand only once. Toxic doses and inconclusive results are not listed.

Tested on: P1534 leukemia ip, CD2F1 mice, survival T/C
Test: NCI In Vivo Anticancer Drug Screen. Data for tumor model P1534 Leukemia (intraperitoneal) in CD2F1 (CDF1) mice
Conditions: endpoint: mean survival time, higher = longer survival
Experimental: The antitumor activity of compounds was measured in mice bearing transplantable tumors. Survival or tumor size were measured and the results are expressed as the measurement made in the treated group (T) divided by the measurement made in the vehicle treated control group (C). The tumor model used in this assay is P1534 Leukemia (intraperitoneal) in CD2F1 (CDF1) mice

[1] = dose: 50.0 mg/kg/injection, schedule: Q01DX010 (ip), vehicle: saline
[2] = dose: 10.0 mg/kg/injection, schedule: Q01DX010 (ip), vehicle: saline
[3] = dose: 20.0 mg/kg/injection, schedule: Q01DX010 (ip), vehicle: saline
[4] = dose: 40.0 mg/kg/injection, schedule: Q01DX010 (ip), vehicle: saline
[5] = dose: 80.0 mg/kg/injection, schedule: Q01DX010 (ip), vehicle: saline

O=C(NO)c1cccnc1
T/C (dose: 270.0 mg/kg/injection, schedule: Q01DX010 (ip), vehicle: water): 113 % of control
T/C (dose: 400.0 mg/kg/injection, schedule: Q01DX010 (ip), vehicle: water): 107 % of control
T/C (dose: 600.0 mg/kg/injection, schedule: Q01DX010 (ip), vehicle: water): 107 % of control and 120 % of control

COc1cc2c3c(c4ccc(O)cc4c2cc1OC)[C@@H](O)[C@@H]1CCCN1C3
T/C (dose: 2.5 mg/kg/injection, schedule: Q01DX009 (ip), vehicle: water): 98 % of control
T/C (dose: 5.0 mg/kg/injection, schedule: Q01DX009 (ip), vehicle: water): 113 % of control
T/C (dose: 15.0 mg/kg/injection, schedule: Q01DX009 (ip), vehicle: water): 110 % of control
T/C (dose: 20.0 mg/kg/injection, schedule: Q01DX009 (ip), vehicle: water): 163 % of control
T/C (dose: 20.0 mg/kg/injection, schedule: Q01DX010 (ip), vehicle: water): 113 % of control
T/C (dose: 30.0 mg/kg/injection, schedule: Q01DX010 (ip), vehicle: water): 86 % of control

CNCC(O)(C(=O)O)C(=O)O
T/C [1]: 103 % of control
T/C (dose: 100.0 mg/kg/injection, schedule: Q01DX010 (ip), vehicle: saline): 96 % of control

COc1ccc2[nH]c3c(C)c4ccncc4c(C)c3c2c1
T/C [2]: 105 % of control and 102 % of control
T/C [3]: 110 % of control and 117 % of control
T/C [4]: 115 % of control and 123 % of control
T/C [5]: 122 % of control

CNC(C)C(O)c1ccccc1 (stereo unspecified)
T/C (dose: 37.5 mg/kg/injection, schedule: Q01DX010 (ip), vehicle: saline): 96 % of control
T/C (dose: 75.0 mg/kg/injection, schedule: Q01DX010 (ip), vehicle: saline): 92 % of control

CCC12CC(C(=O)OC)=C3Nc4cc(OC)ccc4C34CCN(CC3OC31)C42 (stereo unspecified)
T/C (dose: 3.75 mg/kg/injection, schedule: Q01DX010 (ip), vehicle: saline): 96 % of control
T/C (dose: 7.5 mg/kg/injection, schedule: Q01DX010 (ip), vehicle: saline): 100 % of control
T/C (dose: 15.0 mg/kg/injection, schedule: Q01DX010 (ip), vehicle: saline): 90 % of control
T/C (dose: 30.0 mg/kg/injection, schedule: Q01DX010 (ip), vehicle: saline): 96 % of control

CCc1c(CC(=O)O)c2cc(C)ccc2n1Cc1ccc(Cl)cc1
T/C [1]: 107 % of control

COc1cc(C(=O)CC2CCCCN2)ccc1O (stereo unspecified)
T/C [2]: 100 % of control
T/C [3]: 96 % of control
T/C [4]: 96 % of control
T/C [5]: 93 % of control
